Measured values: paper PMC7719179, “Small molecule inhibition of Dynamin-dependent endocytosis targets multiple niche signals and impairs leukemia stem cells” (Nature Communications, 2020)
Where “and” joins values, the source holds several entries; their conditions need not be identical. Equal entries are not always repeated.

Experiments:
[1] = system: leukemogenicity of pre-LSCs; test: Time to leukemia of recipients injected with thymocytes from treated Lmo2^Tg mice; assay type: in vivo, mouse; conditions: for Time to leukemia / Time to leukemia (days): * non-leukemic at endpoint
Description: Fold expansion was calculated by dividing the absolute output number of donor-derived DN3a cells harvested at the experimental endpoint by the respective number of DN3a thymocytes injected in each recipient. […] Leukemia-propagating cell frequency was calculated by applying Poisson statistics using the ELDA: Extreme Limiting Dilution Analysis software (Walter and Eliza Hall Institute Bioinformatics, Parkville VIC, Australia)[96]. Limiting dilution transplantations were performed independently from any other transplantation assays, using thymocytes from three different Lmo2^Tg mice for each cohort. […] Log-rank (Mantel -Cox)

[2] = system: IL-3R, GM-CSFR and c-Kit endocytosis in Ba/F3-SGM3R cells; test: Surface expression of IL-3R, GM-CSFR and KIT in Ba/F3-SGM3R cells; assay type: cell-based, murine; conditions: result in words
Text: The coding sequence of murine Csf2ra (gm-csfr) and c-Kit was amplified by PCR from cDNA of bone marrow mononuclear cells of a healthy WT donor using primers mGmcsfr-FL-F and mGmcsfr-FL-R, and mKit-FL-F and mKit-FL-R, respectively (Table 3). The PCR product was cloned into the XhoI and EcoRI sites of pMIG-R1, which was kindly given by Pear et al.[82],[83]. Ba/F3 cells were infected with pMIG-R1/Gmcsfr retroviral supernatants produced in 293T cells, transduced cells were sorted with a BD Influx (BD Australia) and selected by culture in medium supplemented with 25 ng/mL rmGm-csf (#305-03, Pepro Tech, Rocky Hill NJ, USA) for 7 days. Finally, Ba/F3 cells stably expressing Gm-csfr were infected with pMIG-R1/Kit retroviral supernatants produced in 293T cells to generate Ba/F3-SMG3R cells, which were sorted with a BD Influx and maintained in medium supplemented with 5 ng/mL rmIL-3 (#213-13, Pepro Tech, Rocky Hill NJ, USA).
Mean fluorescence intensity (MFI) ± SD of n=3 biological replicates are shown (*P<0.05, ** P<0.01, ***P<0.001 compared to vehicle) . Basal levels of pStat5 and pErk were measured in unstimulated BaF3-SGM3 R cells (white bar). c, Correlative studies between the relative levels of pStat5 (left) or pErk (right) and the relative survival of BaF3-SGM3R cells treated Dynole 34-2 . […]
in BaF3-SGM3R cells treated with Dynole 34-2 . […] Baseline measured in unstimulated BaF3-SGM3 R cells

[3] = system: AML01-307 and AML18 patient-derived xenografts; test: Xenograft models of human AML (AML01-307, AML18): leukemic burden in blood, bone marrow, spleen; spleen weight; assay type: in vivo
Description: Patient-derived xenograft models were established as previously described[97],[98]. All experiments were pre-approved by the Human Research Ethics Committee of the University of New South Wales (UNSW), the UNSW Animal Care and Ethics Committee, the Alfred Health Human Ethics Committee and the AMREP Animal Ethics Committee. For transplantation assays, 10^6 splenocytes harvested from successfully engrafted primary human ETP-ALL or T-ALL xenografts were injected into nonobese diabetic/severe combined immunodeficient (NOD.Cg-Prkdc^scid, also termed NOD/SCID) or NOD/SCID/Il2rg^tm1wjl/SzJ (NSG) mice[99]. Moreover, 1.5 × 10^6 cells splenocytes harvested from successfully engrafted patient-derived AML xenografts were injected into nonobese diabetic/severe immunodeficient (NOD.Cg-Rag1^tm1MomIl2rg^tm1wjl/SzJ, also termed NRG) mice expressing human IL-3, human GM-CSF and human SCF from the SGM3 triple transgene (NRGS)[100]. Engraftment into recipients was monitored by FACS analysis of peripheral blood as previously described. […] Both males and females were used. […] Kaplan–Meier survival and statistical analyses were performed using GraphPad Prism. 6.0 software (GraphPad Software, Inc.).
Spleen and sternum from recipients were collected, incubated at least 24 h in 3.7% neutral buffered formalin (pH 7.4), embedded in paraffin and sectioned at 8 μm onto Superforst-Plus slides. Samples were incubated with an anti-human CD45 antibody (Dako, #M0701) in Dako Autostainer Plus solution, then incubated with a sheep anti-mouse IgG conjugated to HRP and processed as per standard protocols using 3,3’ Diaminobenzidine staining (#ab64238, Abcam) for all immunoblots, as previously described. Samples were imaged and annotated using an Aperio ScanScope and software system (Leica Biosystems). […]

Question: What does the source list for `CCCCCCCCNC(=O)C(C#N)=Cc1cn(CCCN(C)C)c2ccccc12` [Dynole 34-2, 2-Cyano-N-octyl-3-(1-(3-dimethylaminopropyl)-1H-indol-3-yl)-acrylamide]?
Answer: Time to leukemia ([1]; Supplementary Figure 3h): 138 days and 132 days and 116 days and 149 days; Time to leukemia (days) ([1]; Supplementary Figure 3h): > 210* days; Time to leukemia ([1]; Supplementary Figure 4d): 170 days and 151 days and 119 days and 142 days; Time to leukemia (days) ([1]; Supplementary Figure 4d): > 210* days; leukemogenic potential of pre-LSCs / progression to leukemia in recipients ([1]; recipients of thymocytes from treated Lmo2^Tg mice, result in words): delayed progression to leukemia; endocytosis of c-Kit, GM-CSFR and IL-3R [2]: impaired endocytosis; Absolute numbers human CD45+ cells ([3]; AML01-307, BM): 749000 and 744000 and 1060000; Absolute numbers human CD45+ cells ([3]; AML01-307, Spleen): 5750000 and 6290000 and 9130000; Proportion of hCD45+ (%) in peripheral blood ([3]; AML01-307, time 1 weeks): 0.7% and 0.2% and 0.4% and 0.1%; Proportion of hCD45+ (%) in peripheral blood ([3]; AML01-307, time 2 weeks): 0.7% and 1.2% and 3.7% and 1% and 1.9% and 0.8%; Proportion of hCD45+ (%) in peripheral blood ([3]; AML01-307, time 3 weeks): 2.8% and 3.7% and 3.9% and 4.4% and 5.1% and 2% and 1.3%; Proportion of hCD45+ (%) in peripheral blood ([3]; AML01-307, time 4 weeks): 5.1% and 5.66% and 9.2% and 9% and 8.38% and 2.7% and 2.566% and 4.8%; Proportion of hCD45+ (%) in peripheral blood ([3]; AML01-307, time 5 weeks): 5.6% and 7.7% and 4.3% and 6.7% and 5.2% and 3.11% and 3.44% and 4.93%; Proportion of hCD45+ (%) in peripheral blood ([3]; AML01-307, time 6 weeks): 17.22%; Proportion of hCD45+ (%) in peripheral blood ([3]; AML01-307, time 8 weeks): 18.86% and 22% and 33.26% and 20.57% and 30.66% and 22.85%; Proportion of hCD45+ (%) in peripheral blood ([3]; AML01-307, time 9 weeks): 36.6% and 52.3% and 29.5% and 40.0%; Absolute numbers human CD45+ cells ([3]; AML18, BM): 436000 and 427000 and 629000 and 665000; Proportion of hCD45+ (%) in peripheral blood ([3]; AML18, time 1 weeks): 0.1% and 0.2% and 0.6% and 0.5% and 0.0% and 0.4%; Proportion of hCD45+ (%) in peripheral blood ([3]; AML18, time 4 weeks): 31.4%; Proportion of hCD45+ (%) in peripheral blood ([3]; AML18, time 7 weeks): 30.6% and 36.7%; Proportion of human CD45 (%) in peripheral blood ([3]; AML18 xenograft recipients): 2% and 5.6% and 2.4% and 1.6% and 4.8% and 5% and 2.26% and 2.3%; Spleen weight ([3]; PDX AML01-307): 0.115 g and 0.137 g and 0.108 g; Spleen weight ([3]; PDX AML18): 0.297 g and 0.287 g and 0.182 g and 0.316 g
